Measured values: patent publication US20180050993A1, “NOVEL FLUORINATED DERIVATIVES AS EGFR INHIBITORS USEFUL FOR TREATING CANCERS” (Trillium Therapeutics Inc., priority 2015, published 2018)
Counter-ions that a name gives are not always drawn.

Key:
SNB-19 = assay: NCI screening panel, growth %; format: cell-based, human; details: CNS
Description: (§1) After 24 h, two plates of each cell line are fixed in situ with TCA, to represent a measurement of the cell population for each cell line at the time of drug addition (Tz). Experimental drugs are solubilised in dimethyl sulfoxide at 400-fold the desired final maximum test concentration and stored frozen prior to use. At the time of drug addition, an aliquot of frozen concentrate is thawed and diluted to twice the desired final maximum test concentration with complete medium containing 50 μg/ml gentamicin. Additional four, 10-fold or log serial dilutions are made to provide a total of five drug concentrations plus control. Aliquots of 100 μl of these different drug dilutions are added to the appropriate microtiter wells already containing 100 μl of medium, resulting in the required final drug concentrations.
(§2) Following drug addition, the plates are incubated for an additional 48 h at 37° C., 5% CO2, 95% air, and 100% relative humidity. For adherent cells, the assay is terminated by the addition of cold TCA (trichloroacetic acid). Cells are fixed in situ by the gentle addition of 50 μl of cold 50% (w/v) TCA (final concentration, 10% TCA) and incubated for 60 minutes at 4° C. The supernatant is discarded, and the plates are washed five times with tap water and air dried. Sulforhodamine B (SRB) solution (100 μl) at 0.4% (w/v) in 1% acetic acid is added to each well, and plates are incubated for 10 minutes at room temperature. After staining, unbound dye is removed by washing five times with 1% acetic acid and the plates are air dried. Bound stain is subsequently solubilised with 10 mM trizma base, and the absorbance is read on an automated plate reader at a wavelength of 515 nm. For suspension cells, the methodology is the same except that the assay is terminated by fixing settled cells at the bottom of the wells by gently adding 50 μl of 80% TCA (final concentration, 16% TCA). Using the seven absorbance measurements [time zero, […], control growth, (C), and test growth in the presence of drug at the five concentration levels (Ti)], the percentage growth is calculated at each of the drug concentration levels. Percentage growth inhibition is calculated as: [(Ti−Tz)/(C−Tz)]×100 for concentrations in which Ti>/=Tz and [(Ti−Tz)/Tz]×100 for concentrations in which Ti<Tz.
(§3) Three dose response parameters are calculated for each experimental agent. […] The drug concentration resulting in total growth inhibition (TGI) is calculated from Ti=Tz. […] Values are calculated for each of these three parameters if the level of activity is reached. However, if the effect is not reached or is exceeded, the value for that parameter is expressed as greater or less than the maximum or minimum concentration tested.

TK-10 = assay: NCI screening panel, growth %; format: cell-based, human; details: Renal
Description: as §1, §2, §3

UACC-257 = assay: NCI screening panel, growth %; format: cell-based, human; details: Melanoma
Description: as §1, §2, §3

EKVX = assay: NCI screening panel, growth %; format: cell-based, human; details: NSCLC
Description: as §1, §2, §3

LOX IMVI = assay: NCI screening panel, growth %; format: cell-based, human; details: Melanoma
Description: as §1, §2, §3

HCT-15 = assay: NCI screening panel, growth %; format: cell-based, human; details: Colon
Description: as §1, §2, §3

HT29 = assay: NCI screening panel, growth %; format: cell-based, human; details: Colon
Description: as §1, §2, §3

SK-MEL-2 = assay: NCI screening panel, growth %; format: cell-based, human; details: Melanoma
Description: as §1, §2, §3

NCI-H460 = assay: NCI screening panel, growth %; format: cell-based, human; details: NSCLC
Description: as §1, §2, §3

NCI-H322M = assay: NCI screening panel, growth %; format: cell-based, human; details: NSCLC
Description: as §1, §2, §3

HL-60(TB) = assay: NCI screening panel, growth %; format: cell-based, human; details: Leukemia
Description: as §1, §2, §3

BT-549 = assay: NCI screening panel, growth %; format: cell-based, human; details: Breast
Description: as §1, §2, §3

HCT-116 = assay: NCI screening panel, growth %; format: cell-based, human; details: Colon
Description: as §1, §2, §3

HOP-92 = assay: NCI screening panel, growth %; format: cell-based, human; details: NSCLC
Description: as §1, §2, §3

MDA-MB-468 = assay: NCI screening panel, growth %; format: cell-based, human; details: Breast
Description: as §1, §2, §3

RXF 393 = assay: NCI screening panel, growth %; format: cell-based, human; details: Renal
Description: as §1, §2, §3

SNB-75 = assay: NCI screening panel, growth %; format: cell-based, human; details: CNS
Description: as §1, §2, §3

SF-268 = assay: NCI screening panel, growth %; format: cell-based, human; details: CNS
Description: as §1, §2, §3

MALME-3M = assay: NCI screening panel, growth %; format: cell-based, human; details: Melanoma
Description: as §1, §2, §3

MDA-MB-231/ATCC = assay: NCI screening panel, growth %; format: cell-based, human; details: Breast
Description: as §1, §2, §3

COLO 205 = assay: NCI screening panel, growth %; format: cell-based, human; details: Colon
Description: as §1, §2, §3

NCI-H522 = assay: NCI screening panel, growth %; format: cell-based, human; details: NSCLC
Description: as §1, §2, §3

K-562 = assay: NCI screening panel, growth %; format: cell-based, human; details: Leukemia
Description: as §1, §2, §3

UO-31 = assay: NCI screening panel, growth %; format: cell-based, human; details: Renal
Description: as §1, §2, §3

SK-MEL-5 = assay: NCI screening panel, growth %; format: cell-based, human; details: Melanoma
Description: as §1, §2, §3

SK-OV-3 = assay: NCI screening panel, growth %; format: cell-based, human; details: Ovarian
Description: as §1, §2, §3

CCRF-CEM = assay: NCI screening panel, growth %; format: cell-based, human; details: Leukemia
Description: as §1, §2, §3

T-47D = assay: NCI screening panel, growth %; format: cell-based, human; details: Breast
Description: as §1, §2, §3

NCI-H23 = assay: NCI screening panel, growth %; format: cell-based, human; details: NSCLC
Description: as §1, §2, §3

U251 = assay: NCI screening panel, growth %; format: cell-based, human; details: CNS
Description: as §1, §2, §3

PC-3 = assay: NCI screening panel, growth %; format: cell-based, human; details: Prostate
Description: as §1, §2, §3

786-0 = assay: NCI screening panel, growth %; format: cell-based, human; details: Renal
Description: as §1, §2, §3

HCC827 = assay: Comparison with 1st generation inhibitors against a lung cancer cell line (HCC827); format: cell-based; details: Homo sapiens, read-out: Biochemical IC50

In the case of Fc1ccc(Nc2ncnc3cc(OCCOC(F)F)c(OCCOC(F)F)cc23)c(F)c1Cl [Compound 2D•HCl, N-(3-chloro-2,4-difluoro-phenyl)-6,7-bis[2-(difluoromethoxy)ethoxy]quinazolin-4-amine], the Growth % (SNB-19) is reported as 75.78%, the Growth % (TK-10) is reported as 34.04% and the Growth % (UACC-257) is reported as 87.43%. The Growth % (EKVX) was 48.49%, the Growth % (LOX IMVI) was 52.34% and the Growth % (HCT-15) was 55.49%. It also gave a Growth % (HT29) of 58.66%, a Growth % (SK-MEL-2) of 79.82% and a Growth % (NCI-H460) of 85.74%. For the same compound, the Growth % (NCI-H322M) was −7.70%, the Growth % (HL-60(TB)) was 80.36% and the Growth % (BT-549) was 93.32%. For the same compound, the Growth % (HCT-116) was 81.03%, the Growth % (HOP-92) was 39.43% and the Growth % (MDA-MB-468) was −39.62%. For the same compound, the Growth % (RXF 393) was 37.95%, the Growth % (SNB-75) was 57.99% and the Growth % (SF-268) was 70.93%. The Growth % (MALME-3M) was 73.73%, the Growth % (MDA-MB-231/ATCC) was 65.62% and the Growth % (COLO 205) was 77.41%. The Growth % (NCI-H522) was 24.07%, the Growth % (K-562) was 37.37% and the Growth % (UO-31) was 15.03%. For the same compound, the Growth % (SK-MEL-5) was 74.60%, the Growth % (SK-OV-3) was −13.36% and the Growth % (CCRF-CEM) was 75.53%. The Growth % (T-47D) was 19.78%, the Growth % (NCI-H23) was 78.31% and the Growth % (U251) was 72.65%. It also gave a Growth % (PC-3) of 65.70%, a Growth % (786-0) of 60.48% and an IC50 (HCC827) of 17 nM.
